Reference: patent publication US5164367A, “Method of using copper(II) containing compounds to accelerate wound healing” (ProCyte Corporation, priority 1990, dated 1992)

Legend:
[1] = system: wound chambers in rats (granulation tissue formation); experiment: Wound chamber model in rats, compounds injected directly into the wound chambers;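 also: compounds given as 0.2 ml injections into encapsulated wound chambers in rats on set days, chambers removed at day 15 or 29, contents measured per chamber versus saline-injected chambers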
[2] = system: wound chambers in healing impaired rats (granulation tissue formation); experiment: Wound chamber model in cortisone acetate treated (healing impaired) rats, I.M. injection; format: in vivo
Procedure: (§1) The chambers were removed at day 15 and 29.
(§2) After implantation of the chambers, the rats were subsequently injected with Cortisone Acetate (10 mg I.M. daily, Cortone Acetate, Merck) to impair the healing response. After allowing for encapsulation of the chambers, the rats were injected I.M. (in the opposite leg from the cortisone injection) with 0.1 ml of either a saline solution containing 10 mg/ml of glycyl-L-histidyl-L-lysine:copper(II) (2:1 molar ratio) or saline.
as §2, with “containing 19” for “containing 10”, “of glycyl-L-histidyl-L-lysyl-valyl-phenylalanly-valine:copper(II)” for “of glycyl-L-histidyl-L-lysine:copper(II) (2:1 molar ratio)”
as §2, with “the copper(II) compounds listed at the dosage specified in Table 4,” for “either a saline solution containing 10 mg/ml of glycyl-L-histidyl-L-lysine:copper(II) (2:1 molar ratio)”

[3] = system: 15 mm full-thickness excision wound in mice; experiment: Full thickness defect model in mice, I.M. injection; format: in vivo
Description: Following an acclimation period, mice are anesthetized with I.P. pentobarbital and prepped for surgery. The hair is plucked from a wide area of the mid-back. An ink stamp bearing a 15 mm diameter circle is used to mark the skin for subsequent full-thickness excision. Tissue is excised to the fascia underlying the paniculus carnosus muscle. Following excision, hemostasis is achieved through irrigation and the use of sterile gauze pads.
Mice received a first I.M. treatment of GHL-Cu following hemostasis, Day 0. Injections consisted of 0.1 mg of GHL-Cu in a volume of 0.1 ml. Mice used as controls received injections of saline. Injections were repeated on days 1, 2, 3, 6, 7, 8, 9, 10, and 13.
The residual wound surface area is measured on days 1, 7, 10 and 14. The final comparison is performed on Day 14. Table 5 below illustrates that I.M. injection of GHL-Cu resulted is an approximately 75% smaller residual wound size at 14 days.

[4] = system: wound chambers in normal rats (granulation tissue formation); experiment: Subcutaneous stainless steel wound chamber model, I.M. injection, normal rats; format: in vivo
Description: The subcutaneous implantation of stainless steel wound chambers in rats provides a model for the healing of open cavity wounds. This model in many ways mimics the early events in the formation of granulation tissue found in many types of wounds and surgical defects. Implantation of these chambers triggers a series of responses which reflect the series of phases involved in wound healing--fibrin clot formation, infiltration of white cells, collagen synthesis, and new blood vessel formation.
as §1
After allowing for encapsulation of the chambers, the rats were injected I.M. with 0.1 ml of either a saline solution containing 10 mg/ml glycyl-L-histidyl-L-lysine:copper(II) (2:1 molar ratio) or saline.

[5] = system: 2.0x2.0 cm full thickness skin defects in pigs; experiment: Full thickness skin defects in pigs, I.M. injection, punch biopsy analysis; format: in vivo, domestic pigs; details: pig
Procedure: The systemic application of GHL-Cu increases the formation of granulation tissue in pigs. Two domestic pigs approximately 29-31 pounds, about 8 weeks old, were anesthetized with Ketamine (30 mg/Kg) and Rompum (5 mg/Kg). A series of full thickness skin defects measuring 2.0×2.0 cm were created on the backs of each pig and bandaged with gauze and adhesive tape. One pig was treated with I.M. injections of strerile saline and the other with a solution of GHL-Cu (30 mg/ml). Each pig received 1.0 ml injections of either the saline or GHL-Cu solution on days 0, 1, 2, 5, 6, 7, 8, 9, 12, and 13.
Punch biopsy samples were taken from the centers of the healing wounds on day 7 and day 12 and analyzed for the biochemical parameters of granulation tissue and described in Example 10.

[6] = Table 8 part A, 2.0 mg/injection, saline control 4.5 ± 1.0
[7] = Table 8 part A, 2.0 mg/injection, saline control 49 ± 9
[8] = Table 8 part A, 2.0 mg/injection, saline control 75 ± 11
[9] = Table 8 part A, 2.0 mg/injection, saline control 703 ± 244
[10] = healing impaired (cortisone) rats, 0.3 mg/injection, saline control 502 ± 145
[11] = cortisone treated rats, 0.1 ml of 10 mg/ml

For “glycylL-histidyl-caprolactam:copper(II) [GHCap:Cu]”, which ANGIOGENESIS [1, 6] is on record?
The ANGIOGENESIS was 10.7 ± 3.1 Units AP/chamber.

What about the PROTEIN [1, 7] of the same molecule?
Its PROTEIN is 60 ± 11 mg/chamber.

What about the “WET WEIGHT” value [1, 8] of the same molecule?
The value was 98 ± 13 mg.

And the COLLAGEN [1, 9]?
The COLLAGEN was 1699 ± 365 μg HP/chamber.

With carnosine:copper(II) [CARN:Cu] as the molecule, how does the COLLAGEN [2, 10] read?
The COLLAGEN was 832 ± 174 μg HP/chamber.

With “glycylL-histidyl-L-lysyl-L-tryptophan:copper(II) [GHLW:Cu]” as the molecule, how does the ANGIOGENESIS ([1]; Table 7 part A, 3.1 mg/injection, saline control 5.3 ± 3.6) read?
The ANGIOGENESIS was 7.7 ± 1.6 Units AP/chamber.

And the “WET WEIGHT” value ([1]; Table 7 part A, 3.1 mg/injection, saline control 85 ± 30)?
Its value is 94 ± 14 mg.

And the COLLAGEN ([1]; Table 7 part A, 3.1 mg/injection, saline control 335 ± 132)?
Its COLLAGEN is 1508 ± 128 μg HP/chamber.

Which ANGIOGENESIS ([1]; Table 7 part A, 2.6 mg/injection, saline control 5.3 ± 3.6) does the source give for “glycylL-histidyl-L-lysine octyl amide:copper(II) [GHL-Octyl Amide:Cu]” here?
Its ANGIOGENESIS is 6.7 ± 1.3 Units AP/chamber.

And the PROTEIN ([1]; Table 7 part A, 2.6 mg/injection, saline control 47 ± 20)?
Its PROTEIN is 47 ± 6 mg/chamber.

What about the “WET WEIGHT” value ([1]; Table 7 part A, 2.6 mg/injection, saline control 85 ± 30) of the same molecule?
The value was 101 ± 8 mg.

What about the COLLAGEN ([1]; Table 7 part A, 2.6 mg/injection, saline control 335 ± 132) of the same molecule?
Its COLLAGEN is 1339 ± 265 μg HP/chamber.

Which results are given for “glycylL-histidyl-L-lysine octyl ester:copper(II) [GHL-Octyl Ester:Cu]”?
ANGIOGENESIS ([1]; Table 7 part B, 2.6 mg/injection, saline control 4.5 ± 1.0): 12.4 ± 3.6 Units AP/chamber; PROTEIN ([1]; Table 7 part B, 2.6 mg/injection, saline control 49 ± 9): 66 ± 8 mg/chamber; WET WEIGHT ([1]; Table 7 part B, 2.6 mg/injection, saline control 75 ± 11): 106 ± 8 mg; COLLAGEN ([1]; Table 7 part B, 2.6 mg/injection, saline control 703 ± 244): 1918 ± 565 μg HP/chamber

With “glycyl-L-histidyl-L-lysine:copper(II) [GHL:Cu]” as the molecule, how does the “RESIDUAL WOUND SURFACE AREA DAY 14” value ([3]; 0.1 mg in 0.1 ml per injection, saline control 1.78 ± 2.56) read?
Its value is 0.42 ± 0.60 SQ MM.

What about the “smaller residual wound size at 14 days vs saline” value ([3]; 0.1 mg per injection, day 14) of the same molecule?
The value was “approximately 75%”.

What about the “healing response in healing impaired animals relative to normal animals” value [2, 11] of the same molecule?
The value was “increased the healing response in the healing impaired animals to the level found in the normal animals”.

And the “level of all the biochemical parameters examined compared to control animals” value [2, 11]?
The value was “increased”.

And the ANGIOGENESIS ([2]; healing impaired (cortisone) rats, 1.0 mg/injection, saline control 0.5 ± 0.3)?
The ANGIOGENESIS was 1.5 ± 1.6 Units AP/chamber.

What about the PROTEIN ([2]; healing impaired (cortisone) rats, 1.0 mg/injection, saline control 11 ± 8) of the same molecule?
The PROTEIN was 25 ± 9 mg/chamber.

And the “DRY WEIGHT” value ([2]; healing impaired (cortisone) rats, 1.0 mg/injection, saline control 20 ± 12)?
Its value is 35 ± 13 mg.

What about the COLLAGEN ([2]; healing impaired (cortisone) rats, 1.0 mg/injection, saline control 187 ± 101) of the same molecule?
The COLLAGEN was 366 ± 74 μg HP/chamber.

What about the ANGIOGENESIS ([4]; 1.0 mg/injection, saline control 2.2 ± 1.1) of the same molecule?
Its ANGIOGENESIS is 3.0 ± 1.5 Units AP/chamber.

And the PROTEIN ([4]; 1.0 mg/injection, saline control 36 ± 13)?
Its PROTEIN is 55 ± 19 mg/chamber.

What about the “DRY WEIGHT” value ([4]; 1.0 mg/injection, saline control 51 ± 15) of the same molecule?
The value was 75 ± 25 mg.

What about the COLLAGEN ([4]; 1.0 mg/injection, saline control 376 ± 86) of the same molecule?
Its COLLAGEN is 1273 ± 711 μg HP/chamber.

And the “biochemical healing parameters (vs saline)” value ([4]; 0.1 ml of 10 mg/ml)?
The value was “significantly increased”.

And the “WET WEIGHT” value ([5]; 30 mg/injection, punch biopsies (day 7 and day 12), saline control 121 ± 7)?
The value was 148 ± 11 mg.

And the ANGIOGENESIS ([5]; 30 mg/injection, punch biopsies, saline control 0.4 ± 0.1)?
The ANGIOGENESIS was 2.2 ± 1.2 Units AP/chamber.

What about the COLLAGEN ([5]; 30 mg/injection, punch biopsies, saline control 628 ± 182) of the same molecule?
The COLLAGEN was 855 ± 20 μg HP/chamber.

What about the “visual examination of granulation tissue level” value ([5]; 30 mg/injection, saline treated animal: level below the skin) of the same molecule?
The value was “raised above the level of the surrounding skin”.

What about the “weight, collagen content, and angiogenesis in the biopsies” value ([5]; 1.0 ml of 30 mg/ml per injection) of the same molecule?
Its value is “significant increase”.

With “alanylL-histidyl-L-lysine:copper(II) [AHL:Cu]” as the molecule, how does the ANGIOGENESIS [1, 6] read?
The ANGIOGENESIS was 10.2 ± 6.5 Units AP/chamber.

What about the PROTEIN [1, 7] of the same molecule?
The PROTEIN was 46 ± 14 mg/chamber.

And the “WET WEIGHT” value [1, 8]?
The value was 74 ± 22 mg.

What about the COLLAGEN [1, 9] of the same molecule?
Its COLLAGEN is 1565 ± 520 μg HP/chamber.

For “histidylglycyl-L-lysine:copper(II) [HGL:Cu]”, which ANGIOGENESIS [1, 6] is on record?
Its ANGIOGENESIS is 10.4 ± 3.9 Units AP/chamber.

What about the PROTEIN [1, 7] of the same molecule?
The PROTEIN was 58 ± 9 mg/chamber.

What about the “WET WEIGHT” value [1, 8] of the same molecule?
Its value is 104 ± 13 mg.

And the COLLAGEN [1, 9]?
The COLLAGEN was 2025 ± 456 μg HP/chamber.

Which ANGIOGENESIS ([1]; Table 8 part B, 3.8 mg/injection, saline control 5.3 ± 3.6) does the source give for “lysylL-histidyl-glycyl-L-valyl-L-phenylalanyl-L-valine:copper(II) [LHGVFV:Cu]” here?
Its ANGIOGENESIS is 8.0 ± 1.3 Units AP/chamber.

What about the PROTEIN ([1]; Table 8 part B, 3.8 mg/injection, saline control 47 ± 20) of the same molecule?
Its PROTEIN is 37 ± 9 mg/chamber.

And the “WET WEIGHT” value ([1]; Table 8 part B, 3.8 mg/injection, saline control 85 ± 30)?
The value was 95 ± 18 mg.

And the COLLAGEN ([1]; Table 8 part B, 3.8 mg/injection, saline control 335 ± 132)?
The COLLAGEN was 1630 ± 275 μg HP/chamber.

How did the COLLAGEN ([2]; healing impaired (cortisone) rats, 0.2 mg/injection, saline control 502 ± 145) turn out when O=S(=O)([O-])[O-].[Cu+2] [CuSO4, cupric sulfate] was run?
Its COLLAGEN is 976 ± 343 μg HP/chamber.

How did the COLLAGEN ([2]; healing impaired (cortisone) rats, 0.5 mg/injection, saline control 502 ± 145) turn out when citrate:copper(II) [CITRATE:Cu] was run?
The COLLAGEN was 976 ± 343 μg HP/chamber.

How did the ANGIOGENESIS ([2]; cortisone treated rats, 1.9 mg/injection, saline control 1.9 ± 0.4) turn out when “glycyl-L-histidyl-L-lysyl-L-valyl-L-phenylalanyl-L-valine:copper(II) [GHLVFV:Cu]” was run?
Its ANGIOGENESIS is 6.9 ± 6.1 Units AP/chamber.

What about the PROTEIN ([2]; cortisone treated rats, 1.9 mg/injection, saline control 32 ± 4) of the same molecule?
The PROTEIN was 45 ± 15 mg/chamber.

And the “DRY WEIGHT” value ([2]; cortisone treated rats, 1.9 mg/injection, saline control 65 ± 8)?
The value was 84 ± 28 mg.

What about the COLLAGEN ([2]; cortisone treated rats, 1.9 mg/injection, saline control 502 ± 145) of the same molecule?
Its COLLAGEN is 1279 ± 1001 μg HP/chamber.

And the “level of all the biochemical parameters examined” value ([2]; cortisone treated rats, 0.1 ml of 19 mg/ml)?
Its value is “increased”.

With “glycylglycyl-glycine:copper(II) [GGG:Cu]” as the molecule, how does the COLLAGEN [2, 10] read?
Its COLLAGEN is 829 ± 210 μg HP/chamber.

For “glycylL-(3-methyl)histidyl-L-lysine:copper(II) [G(3-Me)HL:Cu]”, which ANGIOGENESIS [1, 6] is on record?
Its ANGIOGENESIS is 8.9 ± 5.5 Units AP/chamber.

And the PROTEIN [1, 7]?
The PROTEIN was 75 ± 9 mg/chamber.

And the “WET WEIGHT” value [1, 8]?
Its value is 125 ± 15 mg.

What about the COLLAGEN [1, 9] of the same molecule?
The COLLAGEN was 1996 ± 288 μg HP/chamber.
